According to PubChem BioAssay AID1963853 (Molecular Pharmacology Branch, DTP, NCI, 2024):
pIC50: −log10 of the molar value.

Test system: 266295-075-R-J1-PDC spheroid viability
Test: Anticancer human tumor 266295-075-R-J1-PDC patient-derived head and neck squamous carcinoma cell line growth inhibition [POLQ]
Details: spheroids with HUVEC and MSC; for pIC50: curve of first compound; for viability, T/C: stronger effect = lower value; active = viability on the fitted dose curve at most 10% of control; inactive = the rest
Outline: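 Patient-derived tumour cells were co-cultured with HUVEC and mesenchymal stem cells as multicellular spheroids at 37 °C. They were treated with POLQ inhibitors (novobiocin, ART-558, RP6685) alone or combined with other agents. Top concentrations were at or near clinical Cmax (otherwise 10 microM; SN-38 at 1 microM), decreasing in half-log steps.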

[1] = second compound 0.0316 µM, first compound 0.0316 µM
[2] = second compound 0.0316 µM, first compound 0.1 µM
[3] = second compound 0.0316 µM, first compound 0.316 µM
[4] = second compound 0.0316 µM, first compound 1 µM
[5] = second compound 0.1 µM, first compound 0.0316 µM
[6] = second compound 0.1 µM, first compound 0.1 µM
[7] = second compound 0.1 µM, first compound 0.316 µM
[8] = second compound 0.1 µM, first compound 1 µM
[9] = second compound 0.316 µM, first compound 0.0316 µM
[10] = second compound 0.316 µM, first compound 0.1 µM
[11] = second compound 0.316 µM, first compound 0.316 µM
[12] = second compound 0.316 µM, first compound 1 µM
[13] = second compound 1 µM, first compound 0.0316 µM
[14] = second compound 1 µM, first compound 0.1 µM
[15] = second compound 1 µM, first compound 0.316 µM
[16] = second compound 1 µM, first compound 1 µM
[17] = second compound 3.16 µM, first compound 0.0316 µM
[18] = second compound 3.16 µM, first compound 0.1 µM
[19] = second compound 3.16 µM, first compound 0.316 µM
[20] = second compound 3.16 µM, first compound 1 µM
[21] = second compound 10 µM, first compound 0.0316 µM
[22] = second compound 10 µM, first compound 0.1 µM
[23] = second compound 10 µM, first compound 0.316 µM
[24] = second compound 10 µM, first compound 1 µM
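Also: spheroids exposed to compounds for seven days before readout.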

C=CCn1c(=O)c2cnc(Nc3ccc(N4CCN(C)CC4)cc3)nc2n1-c1cccc(C(C)(C)O)n1 + Nc1ccc(C#CCN(C(=O)Cc2ncc(C(F)(F)F)cc2C(F)(F)F)c2ccc(F)cc2)nn1
< 6.00: pIC50 (second compound 0.0316 µM) | pIC50 (second compound 0.1 µM) | pIC50 (second compound 0.316 µM) | pIC50 (second compound 1 µM) | pIC50 (second compound 3.16 µM) | pIC50 (second compound 10 µM)
inactive: viability, T/C (second compound 0.0316 µM, first compound 0.00316 µM) 102% | viability, T/C (second compound 0.0316 µM, first compound 0.01 µM) 90.4% | viability, T/C [1] 101% | viability, T/C [2] 89.2% | viability, T/C [3] 86.2% | viability, T/C [4] 63.8% | viability, T/C (second compound 0.1 µM, first compound 0.00316 µM) 114% | viability, T/C (second compound 0.1 µM, first compound 0.01 µM) 95.8% | viability, T/C [5] 88.1% | viability, T/C [6] 125% | viability, T/C [7] 84.1% | viability, T/C [8] 68.8% | viability, T/C (second compound 0.316 µM, first compound 0.00316 µM) 98.7% | viability, T/C (second compound 0.316 µM, first compound 0.01 µM) 99.1% | viability, T/C [9] 84.1% | viability, T/C [10] 85.2% | viability, T/C [11] 69.3% | viability, T/C [12] 65.3% | viability, T/C (second compound 1 µM, first compound 0.00316 µM) 93% | viability, T/C (second compound 1 µM, first compound 0.01 µM) 96.2% | viability, T/C [13] 87.7% | viability, T/C [14] 101% | viability, T/C [15] 81.3% | viability, T/C [16] 54.3% | viability, T/C (second compound 3.16 µM, first compound 0.00316 µM) 102% | viability, T/C (second compound 3.16 µM, first compound 0.01 µM) 106% | viability, T/C [17] 85.2% | viability, T/C [18] 77.3% | viability, T/C [19] 72.4% | viability, T/C [20] 63.5% | viability, T/C (second compound 10 µM, first compound 0.00316 µM) 115% | viability, T/C (second compound 10 µM, first compound 0.01 µM) 90.6% | viability, T/C [21] 91.5% | viability, T/C [22] 109% | viability, T/C [23] 81.2% | viability, T/C [24] 57.3%

CCCS(=O)(=O)Nc1ccc(F)c(C(=O)c2c[nH]c3ncc(-c4ccc(Cl)cc4)cc23)c1F + Nc1ccc(C#CCN(C(=O)Cc2ncc(C(F)(F)F)cc2C(F)(F)F)c2ccc(F)cc2)nn1
inactive: viability, T/C [1] 97.9% | viability, T/C [2] 115% | viability, T/C [3] 115% | viability, T/C [4] 102% | viability, T/C (second compound 0.0316 µM, first compound 3.16 µM) 158% | viability, T/C (second compound 0.0316 µM, first compound 10 µM) 160% | viability, T/C [5] 101% | viability, T/C [6] 105% | viability, T/C [7] 99.2% | viability, T/C [8] 116% | viability, T/C (second compound 0.1 µM, first compound 3.16 µM) 156% | viability, T/C (second compound 0.1 µM, first compound 10 µM) 145% | viability, T/C [9] 102% | viability, T/C [10] 103% | viability, T/C [11] 82.3% | viability, T/C [12] 105% | viability, T/C (second compound 0.316 µM, first compound 3.16 µM) 143% | viability, T/C (second compound 0.316 µM, first compound 10 µM) 131% | viability, T/C [13] 122% | viability, T/C [14] 92.5% | viability, T/C [15] 115% | viability, T/C [16] 93.8% | viability, T/C (second compound 1 µM, first compound 3.16 µM) 146% | viability, T/C (second compound 1 µM, first compound 10 µM) 145% | viability, T/C [17] 84.8% | viability, T/C [18] 135% | viability, T/C [19] 121% | viability, T/C [20] 109% | viability, T/C (second compound 3.16 µM, first compound 3.16 µM) 142% | viability, T/C (second compound 3.16 µM, first compound 10 µM) 160% | viability, T/C [21] 119% | viability, T/C [22] 104% | viability, T/C [23] 104% | viability, T/C [24] 119% | viability, T/C (second compound 10 µM, first compound 3.16 µM) 143% | viability, T/C (second compound 10 µM, first compound 10 µM) 171%
< 5.00: pIC50 (second compound 0.0316 µM) | pIC50 (second compound 0.1 µM) | pIC50 (second compound 0.316 µM) | pIC50 (second compound 1 µM) | pIC50 (second compound 3.16 µM) | pIC50 (second compound 10 µM)
